Data published in the NIST ThermoML archive (doi:10.1016/j.jct.2016.11.009).
± gives the expanded uncertainty stated by the source.

Experiment: xn = mol fraction of the nth substance listed
Details: Fluid (supercritical or subcritical phases), Buoyancy - hydrostatic balance with magnetic suspension - one sinker

C [methane] + O=C=O
Details	mass density [kg/m3]
299.61 K, 4220 kPa, x2 = 0.6015	65.102 ± 0.33
299.93 K, 5997 kPa, x2 = 0.3997	77.827 ± 0.43
299.94 K, 6004 kPa, x2 = 0.6015	100.404 ± 0.53
299.95 K, 9002 kPa, x2 = 0.2017	95.03 ± 0.61
299.95 K, 15006 kPa, x2 = 0.8988	723.669 ± 6.4
299.96 K, 5002 kPa, x2 = 0.6015	79.746 ± 0.4
299.96 K, 7003 kPa, x2 = 0.3997	93.846 ± 0.54
299.96 K, 7999 kPa, x2 = 0.2017	82.733 ± 0.51
299.96 K, 8008 kPa, x2 = 0.8988	302.149 ± 5.3
299.96 K, 12001 kPa, x2 = 0.3997	186.929 ± 1.3
299.97 K, 5996 kPa, x2 = 0.7985	129.225 ± 0.73
299.97 K, 6997 kPa, x2 = 0.2017	70.838 ± 0.43
299.97 K, 8000 kPa, x2 = 0.3997	110.726 ± 0.65
299.97 K, 10986 kPa, x2 = 0.8988	631.428 ± 6.6
299.97 K, 13852 kPa, x2 = 0.0998	130.843 ± 0.97
299.98 K, 2118 kPa, x2 = 0.0998	16.647 ± 0.15
299.98 K, 4383 kPa, x2 = 0.0998	35.981 ± 0.23
299.98 K, 7000 kPa, x2 = 0.6015	123.126 ± 0.74
299.98 K, 7004 kPa, x2 = 0.8988	203.104 ± 1.9
299.98 K, 8002 kPa, x2 = 0.6015	148.65 ± 0.96
299.98 K, 8997 kPa, x2 = 0.3997	128.548 ± 0.81
299.98 K, 8997 kPa, x2 = 0.8988	483.358 ± 9.9
299.98 K, 9722 kPa, x2 = 0.0998	87.624 ± 0.59
299.98 K, 10003 kPa, x2 = 0.7985	353.847 ± 4.6
299.98 K, 10997 kPa, x2 = 0.7985	428.638 ± 5.1
299.99 K, 4000 kPa, x2 = 0.2017	37.902 ± 0.23
299.99 K, 4003 kPa, x2 = 0.3997	48.763 ± 0.27
299.99 K, 4192 kPa, x2 = 0.0998	34.275 ± 0.23
299.99 K, 4997 kPa, x2 = 0.7985	99.658 ± 0.49
299.99 K, 6002 kPa, x2 = 0.2017	59.46 ± 0.36
299.99 K, 10005 kPa, x2 = 0.2017	107.622 ± 0.7
299.99 K, 12000 kPa, x2 = 0.2017	133.357 ± 0.91
299.99 K, 12004 kPa, x2 = 0.6015	275.504 ± 2.5
299.99 K, 12017 kPa, x2 = 0.8988	664.349 ± 7.4
299.99 K, 14986 kPa, x2 = 0.0998	142.483 ± 1
299.99 K, 18001 kPa, x2 = 0.2017	207.683 ± 1.5
300 K, 3662 kPa, x2 = 0.2017	34.438 ± 0.21
300 K, 6399 kPa, x2 = 0.0998	54.523 ± 0.36
300 K, 7624 kPa, x2 = 0.0998	66.394 ± 0.45
300 K, 8000 kPa, x2 = 0.7985	212.092 ± 1.8
300 K, 10995 kPa, x2 = 0.3997	166.796 ± 1.1
300 K, 14999 kPa, x2 = 0.2017	171.971 ± 1.2
300 K, 17997 kPa, x2 = 0.6015	433.882 ± 3.2
300.01 K, 5001 kPa, x2 = 0.2017	48.462 ± 0.29
300.01 K, 8998 kPa, x2 = 0.7985	274.617 ± 3.2
300.01 K, 9002 kPa, x2 = 0.6015	176.866 ± 1.3
300.01 K, 11000 kPa, x2 = 0.2017	120.384 ± 0.82
300.02 K, 2964 kPa, x2 = 0.0998	23.652 ± 0.17
300.02 K, 3999 kPa, x2 = 0.7985	74.633 ± 0.36
300.02 K, 6996 kPa, x2 = 0.7985	165.378 ± 1.1
300.02 K, 9996 kPa, x2 = 0.6015	207.768 ± 1.7
300.02 K, 10011 kPa, x2 = 0.8988	582.856 ± 7.7
300.02 K, 15007 kPa, x2 = 0.3997	246.022 ± 1.8
300.02 K, 18000 kPa, x2 = 0.0998	171.73 ± 1.3
300.03 K, 5996 kPa, x2 = 0.8988	149.398 ± 0.97
300.03 K, 10998 kPa, x2 = 0.6015	241.279 ± 2.1
300.03 K, 11790 kPa, x2 = 0.0998	109.201 ± 0.77
300.03 K, 17999 kPa, x2 = 0.8988	760.577 ± 5.9
300.04 K, 5006 kPa, x2 = 0.8988	112.111 ± 0.6
300.04 K, 6260 kPa, x2 = 0.0998	53.19 ± 0.34
300.04 K, 12001 kPa, x2 = 0.7985	485.736 ± 5.2
300.04 K, 14998 kPa, x2 = 0.6015	367.75 ± 3
300.05 K, 18002 kPa, x2 = 0.3997	297.591 ± 2.1
300.06 K, 5002 kPa, x2 = 0.3997	62.85 ± 0.36
300.06 K, 17999 kPa, x2 = 0.7985	637.414 ± 4.4
300.07 K, 9277 kPa, x2 = 0.0998	82.984 ± 0.55
300.07 K, 14999 kPa, x2 = 0.7985	584.129 ± 4.6
300.07 K, 16598 kPa, x2 = 0.0998	158.42 ± 1.3
300.1 K, 4310 kPa, x2 = 0.8988	90.757 ± 0.42
300.21 K, 10004 kPa, x2 = 0.3997	147.143 ± 0.95
303.07 K, 10005 kPa, x2 = 0.8988	522.742 ± 7.9
303.07 K, 11007 kPa, x2 = 0.8988	588.449 ± 6.9
303.1 K, 11000 kPa, x2 = 0.6015	229.981 ± 1.8
303.1 K, 12003 kPa, x2 = 0.0998	109.095 ± 0.76
303.1 K, 18071 kPa, x2 = 0.7985	621.015 ± 4.3
303.11 K, 4004 kPa, x2 = 0.8988	80.364 ± 0.39
303.11 K, 9000 kPa, x2 = 0.0998	78.724 ± 0.54
303.11 K, 9001 kPa, x2 = 0.7985	254.341 ± 2.4
303.11 K, 17996 kPa, x2 = 0.2017	202.897 ± 1.5
303.11 K, 18001 kPa, x2 = 0.0998	167.945 ± 1.2
303.12 K, 3001 kPa, x2 = 0.0998	23.673 ± 0.18
303.12 K, 10001 kPa, x2 = 0.7985	320.908 ± 3.6
303.12 K, 11000 kPa, x2 = 0.0998	98.851 ± 0.7
303.13 K, 3999 kPa, x2 = 0.2017	37.359 ± 0.22
303.13 K, 4999 kPa, x2 = 0.3997	61.796 ± 0.33
303.13 K, 6004 kPa, x2 = 0.7985	125.434 ± 0.68
303.13 K, 6999 kPa, x2 = 0.2017	69.612 ± 0.42
303.13 K, 11860 kPa, x2 = 0.7985	444.556 ± 4.8
303.13 K, 11999 kPa, x2 = 0.2017	130.323 ± 0.88
303.14 K, 3995 kPa, x2 = 0.6015	59.469 ± 0.29
303.14 K, 7004 kPa, x2 = 0.6015	119.411 ± 0.69
303.14 K, 8002 kPa, x2 = 0.0998	68.892 ± 0.47
303.14 K, 17999 kPa, x2 = 0.6015	420.157 ± 3.1
303.15 K, 5000 kPa, x2 = 0.0998	40.895 ± 0.27
303.15 K, 8006 kPa, x2 = 0.6015	143.46 ± 0.88
303.15 K, 9999 kPa, x2 = 0.6015	198.747 ± 1.5
303.15 K, 10004 kPa, x2 = 0.0998	88.738 ± 0.61
303.15 K, 11003 kPa, x2 = 0.7985	391.279 ± 4.6
303.15 K, 12001 kPa, x2 = 0.3997	181.298 ± 1.2
303.15 K, 14998 kPa, x2 = 0.7985	561.073 ± 4.5
303.16 K, 4000 kPa, x2 = 0.7985	73.078 ± 0.34
303.16 K, 4001 kPa, x2 = 0.3997	48.004 ± 0.29
303.16 K, 5009 kPa, x2 = 0.6015	77.914 ± 0.39
303.16 K, 6006 kPa, x2 = 0.0998	50.034 ± 0.34
303.16 K, 7994 kPa, x2 = 0.7985	200.301 ± 1.5
303.16 K, 8000 kPa, x2 = 0.3997	108.241 ± 0.63
303.16 K, 8016 kPa, x2 = 0.8988	253.316 ± 3
303.16 K, 8992 kPa, x2 = 0.8988	374.284 ± 7.8
303.16 K, 8999 kPa, x2 = 0.6015	169.77 ± 1.1
303.17 K, 4998 kPa, x2 = 0.2017	47.685 ± 0.29
303.17 K, 5005 kPa, x2 = 0.8988	108.149 ± 0.54
303.17 K, 6001 kPa, x2 = 0.2017	58.474 ± 0.35
303.17 K, 9001 kPa, x2 = 0.2017	93.089 ± 0.58
303.17 K, 14997 kPa, x2 = 0.0998	139.317 ± 1
303.17 K, 18000 kPa, x2 = 0.8988	742.988 ± 5
303.18 K, 4002 kPa, x2 = 0.0998	32.139 ± 0.21
303.18 K, 5999 kPa, x2 = 0.3997	76.379 ± 0.42
303.18 K, 6996 kPa, x2 = 0.3997	91.801 ± 0.52
303.18 K, 7001 kPa, x2 = 0.8988	186.521 ± 1.4
303.18 K, 7999 kPa, x2 = 0.2017	81.148 ± 0.51
303.19 K, 7000 kPa, x2 = 0.0998	59.247 ± 0.39
303.19 K, 12002 kPa, x2 = 0.6015	261.85 ± 2.2
303.19 K, 15005 kPa, x2 = 0.2017	167.871 ± 1.2
303.2 K, 5001 kPa, x2 = 0.7985	97.235 ± 0.48
303.2 K, 8999 kPa, x2 = 0.3997	125.402 ± 0.78
303.2 K, 10993 kPa, x2 = 0.3997	162.067 ± 1.1
303.2 K, 10996 kPa, x2 = 0.2017	117.65 ± 0.77
303.21 K, 7002 kPa, x2 = 0.7985	158.82 ± 0.97
303.21 K, 9999 kPa, x2 = 0.3997	143.458 ± 0.88
303.21 K, 15000 kPa, x2 = 0.8988	701.018 ± 5.2
303.21 K, 17999 kPa, x2 = 0.3997	288.435 ± 2
303.22 K, 9998 kPa, x2 = 0.2017	105.223 ± 0.68
303.22 K, 15003 kPa, x2 = 0.6015	352.168 ± 2.8
303.23 K, 6005 kPa, x2 = 0.6015	97.567 ± 0.51
303.26 K, 6002 kPa, x2 = 0.8988	141.868 ± 0.84
